The record followed here is article PMC8268376, “Effects of Venlafaxine, Risperidone and Febuxostat on Cuprizone-Induced Demyelination, Behavioral Deficits and Oxidative Stress” (International Journal of Molecular Sciences, 2021).

The experiment deals with TRPA1 (hTRPA1, transient receptor potential ankyrin 1) (Homo sapiens, UniProt O75762). As to the kind of experiment: Calcium […] fluorescence assay in hTRPA1-transfected vs untransfected HEK293T cells; agonist response blocked by A-967079; significant at […] and above. The format is cell-based.
TRPA1 (hTRPA1, transient receptor potential ankyrin 1), sequence (O75762 whole entry): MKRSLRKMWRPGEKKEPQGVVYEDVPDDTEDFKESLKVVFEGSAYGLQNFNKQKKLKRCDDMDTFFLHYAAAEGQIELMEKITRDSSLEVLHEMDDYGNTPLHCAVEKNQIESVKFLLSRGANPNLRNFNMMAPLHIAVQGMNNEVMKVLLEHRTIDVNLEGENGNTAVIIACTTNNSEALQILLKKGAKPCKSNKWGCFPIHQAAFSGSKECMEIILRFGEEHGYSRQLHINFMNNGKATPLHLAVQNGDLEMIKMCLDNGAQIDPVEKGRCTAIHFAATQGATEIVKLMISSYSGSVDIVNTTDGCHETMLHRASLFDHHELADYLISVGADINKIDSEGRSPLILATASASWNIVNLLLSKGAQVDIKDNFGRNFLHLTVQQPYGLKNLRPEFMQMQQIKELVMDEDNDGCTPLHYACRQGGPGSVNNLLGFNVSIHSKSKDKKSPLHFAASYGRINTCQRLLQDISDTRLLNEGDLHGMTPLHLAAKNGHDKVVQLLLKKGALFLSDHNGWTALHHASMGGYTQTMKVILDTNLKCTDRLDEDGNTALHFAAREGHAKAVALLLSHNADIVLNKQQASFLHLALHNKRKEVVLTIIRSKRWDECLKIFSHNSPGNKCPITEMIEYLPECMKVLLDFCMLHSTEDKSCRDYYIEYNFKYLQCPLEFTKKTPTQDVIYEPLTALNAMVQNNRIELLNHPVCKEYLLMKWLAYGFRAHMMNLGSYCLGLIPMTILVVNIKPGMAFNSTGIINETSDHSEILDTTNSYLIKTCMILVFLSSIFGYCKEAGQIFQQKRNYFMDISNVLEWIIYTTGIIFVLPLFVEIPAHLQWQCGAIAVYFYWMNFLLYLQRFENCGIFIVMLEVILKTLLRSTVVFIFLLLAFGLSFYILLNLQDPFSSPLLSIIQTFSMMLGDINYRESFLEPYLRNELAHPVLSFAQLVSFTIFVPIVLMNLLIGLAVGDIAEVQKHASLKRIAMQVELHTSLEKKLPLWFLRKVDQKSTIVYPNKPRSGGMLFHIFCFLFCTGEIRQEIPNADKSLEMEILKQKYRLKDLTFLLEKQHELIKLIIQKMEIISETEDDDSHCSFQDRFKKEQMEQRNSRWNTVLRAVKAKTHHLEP

Turning to `Cc1nc(-c2ccc(OCC(C)C)c(C#N)c2)sc1C(=O)O` [febuxostat], the “lowest concentration giving significant TRPA1 calcium response” value is listed as ~ 126 µM.
